{"source": "paper PMC11062894", "about": "“Protein-based bandpass filters for controlling cellular signaling with chemical inputs” (Nature Chemical Biology, 2023)", "key": {"Bcl2": {"system": "Bcl2", "details": "cited from earlier work"}, "[1]": {"target": "GEMS with the dual-drug-controlled (venetoclax, A-1155463) switch (BclXL and Bcl2–LD3) in HEK293T cells (Homo sapiens, UniProt P10415)", "sequence (P10415 whole entry)": "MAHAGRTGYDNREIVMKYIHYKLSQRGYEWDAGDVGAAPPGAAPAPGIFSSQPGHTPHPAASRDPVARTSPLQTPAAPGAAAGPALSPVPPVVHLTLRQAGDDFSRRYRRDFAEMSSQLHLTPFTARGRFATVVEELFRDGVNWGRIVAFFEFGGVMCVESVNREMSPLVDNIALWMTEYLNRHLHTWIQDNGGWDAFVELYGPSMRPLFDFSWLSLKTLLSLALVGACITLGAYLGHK", "sequence (Q07817 whole entry, further chain)": "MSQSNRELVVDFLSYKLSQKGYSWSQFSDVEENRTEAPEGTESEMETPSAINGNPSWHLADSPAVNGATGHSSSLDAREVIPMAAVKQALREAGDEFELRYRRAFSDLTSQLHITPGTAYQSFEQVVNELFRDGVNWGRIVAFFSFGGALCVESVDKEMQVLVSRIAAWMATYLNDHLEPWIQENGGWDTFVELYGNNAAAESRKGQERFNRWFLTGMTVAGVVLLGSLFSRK", "assay": "GEMS SEAP reporter assay, dual-drug-controlled (venetoclax, A-1155463) switch", "format": "cell-based", "experimental": "(§1) HEK293T cells were seeded in a 96-well plate 24 h before transfection. The transfection mix in each well consisted of 3 ng of constitutive human CMV promoter driven mammalian STAT3 expression vector (PhCMV-STAT3-pA), 30 ng of STAT3-induced reporter expression (OStat3-PhCMVmin-SEAP-pA) and 50 ng of expression vectors for each GEMS receptor chain (PSV40-IgK-(drughigh receptor)-EpoRm-IL-6RBm-pA and PSV40-IgK-(druglow receptor-GGGGSX3-LD3)-EpoRm-IL-6RBm-pA). For the specific drughigh receptor and druglow receptor used in the different cellular assays, they are indicated as wild type or with mutations. Then, plasmid DNA was mixed with 50 μl opti-MEM (Thermo Fisher) and 600 ng of polyethyleneimine (Polysciences, catalog no. 24765-1). For drug treatment experiments, drugs were added 12 h post-transfection and incubated with cells for 24 h before the SEAP reporter detection assay.\n(§2) SEAP activity (U l^−1) in cell culture supernatants was quantified by kinetic measurements at 405 nm (1 minute per measurement for 30 cycles) of absorbance increase due to phosphatase-mediated hydrolysis of para-nitrophenyl phosphate (pNPP).\n(§3) Binding affinities of SPR drug competition assays were calculated using three-parameter nonlinear regression in GraphPad Prism (v.8.3.0). Representative data of cell assays are presented as individual values and mean values (bars). n = 3 refers to biological replicates. All IC50 or EC50 values of cell assays reported were calculated using four-parameter nonlinear regression ± s.d. Bandpass features of cutoff concentrations and Bandwidth90% were estimated based on the curve fitted using bell-shaped curve nonlinear regression in GraphPad Prism (v.8.3.0). […]"}, "BclXL–LD3 interaction": {"target": "BclXL–LD3 interaction (Homo sapiens, UniProt Q07817)", "sequence (Q07817 1-209 limits assumed)": "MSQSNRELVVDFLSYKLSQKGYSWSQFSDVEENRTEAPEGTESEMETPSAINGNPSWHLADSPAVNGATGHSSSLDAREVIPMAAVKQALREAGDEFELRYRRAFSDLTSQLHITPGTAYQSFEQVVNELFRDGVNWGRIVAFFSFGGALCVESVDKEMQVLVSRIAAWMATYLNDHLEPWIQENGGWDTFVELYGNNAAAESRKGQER", "assay": "SPR drug competition assay, BclXL–LD3", "format": "binding", "details": "for Normalization of Response units / Response units: BclXL, Supp Fig 2d"}, "Bcl2–LD3 interaction": {"target": "Bcl2–LD3 interaction (Homo sapiens, UniProt P10415)", "sequence (P10415 1-207 limits assumed)": "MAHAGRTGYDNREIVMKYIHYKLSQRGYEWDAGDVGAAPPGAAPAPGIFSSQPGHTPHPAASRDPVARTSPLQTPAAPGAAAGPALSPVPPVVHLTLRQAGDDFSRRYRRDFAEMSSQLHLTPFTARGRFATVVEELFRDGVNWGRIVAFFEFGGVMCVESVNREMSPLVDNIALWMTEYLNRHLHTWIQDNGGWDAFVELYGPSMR", "assay": "SPR drug competition assay, Bcl2–LD3", "format": "binding", "details": "Bcl2, Supp Fig 2d", "experimental": "Drug IC50 values for disrupting heterodimers were measured on a Biacore 8K device. A 5 µM portion of analyte was mixed with 10 µM of BclXL or Bcl2 inhibitors according to the analyte. The mixtures of analyte and drug were injected onto the LD3 immobilized channel.\nas §3\nThis assay is designed to test if the drug of interest can specifically disrupt the\ninteraction between LD3 and BclXL/Bcl2. The drug-receptors (Bcl2, BclXL) are immobilized on the\ndifferent channels of the sensor chip, then the binding sites are saturated with LD3. […]"}, "[2]": {"target": "GEMS with the dual-drug-controlled (A-1155463, venetoclax) switch (Bcl2 and BclXL–LD3) in HEK293T cells (Homo sapiens, UniProt P10415)", "sequence (Q07817 whole entry)": "as the sequence (Q07817 whole entry, further chain) above", "sequence (P10415 whole entry)": "as the sequence (P10415 whole entry) above", "assay": "GEMS SEAP reporter assay, dual-drug-controlled (A-1155463, venetoclax) switch", "format": "cell-based", "details": "for SEAP (U/L): Figure 2c, OFF-phase", "description": "In the first step, we sought to construct a dual-drug-controlled switch to test whether the ON and OFF switching processes can be combined in our receptor architecture. We used Bcl2 and BclXL as the orthogonal drug receptors, which interact with the LD3 protein and respond to their own specific inhibitors. In such a setting, the dual-drug-controlled switch will turn ON in response to one drug and OFF in response to the other, thus mimicking bandpass filtering behavior (Supplementary Fig. 1d). […] To test the switch behavior, we employed the generalizable extracellular molecule sensor (GEMS) platform, which senses extracellular molecules and thus regulates cell surface signaling pathways (Fig. 2a). This receptor platform is based on a mutated EpoR extracellular and transmembrane domain fused to an IL-6RB intracellular domain. Dimerization of EpoR extracellular domains is controlled by N-terminally fused inducible dimerization domains, which drive IL-6RB activation and STAT3 signaling. The Bcl2 and BclXL–LD3 complexes were fused to the extracellular EpoR domains. […] The dimerization of Bcl2 and LD3 causes EpoR extracellular domain dimerization and triggers JAK/STAT3 signaling. Active STAT3 drives the expression of a reporter protein (secreted alkaline phosphatase (SEAP)) controlled by a STAT3-dependent promoter.\nas §1, §2\nBinding affinities of SPR drug competition assays were calculated using three-parameter nonlinear regression in GraphPad Prism (v.8.3.0). Representative data of cell assays are presented as individual values and mean values (bars). n = 3 refers to biological replicates. All IC50 or EC50 values of cell assays reported were calculated using four-parameter nonlinear regression ± s.d. Bandpass features of cutoff concentrations and Bandwidth90% were estimated based on the curve fitted using bell-shaped curve nonlinear regression in GraphPad Prism (v.8.3.0)."}}, "note": "Values joined by “and” are separate entries in the source; they are usually repeats but may differ in a detail not shown here. Identical values can stand only once.", "data": [{"smiles": "CC1(C)CCC(CN2CCN(c3ccc(C(=O)NS(=O)(=O)c4ccc(NCC5CCOCC5)c([N+](=O)[O-])c4)c(Oc4cnc5[nH]ccc5c4)c3)CC2)=C(c2ccc(Cl)cc2)C1", "note": "[Venetoclax]", "values": [{"measurement": "affinity for Bcl2 stronger than for BclXL", "setting": "Bcl2", "result": 500, "unit": "fold"}, {"measurement": "increase in the ON phase", "setting": "[1]", "result": "close to tenfold"}, {"measurement": "Normalization of Response units", "setting": "BclXL–LD3 interaction; V 0.01", "result": 100.685}, {"measurement": "Response units", "setting": "BclXL–LD3 interaction; V 0.01", "result": 94.0092}, {"measurement": "Normalization of Response units", "setting": "BclXL–LD3 interaction; V 0.1", "result": 99.7556}, {"measurement": "Response units", "setting": "BclXL–LD3 interaction; V 0.1", "result": 93.1418}, {"measurement": "Normalization of Response units", "setting": "BclXL–LD3 interaction; V 1", "result": 98.8448}, {"measurement": "Response units", "setting": "BclXL–LD3 interaction; V 1", "result": 92.2914}, {"measurement": "Normalization of Response units", "setting": "BclXL–LD3 interaction; V 10", "result": 97.5083}, {"measurement": "Response units", "setting": "BclXL–LD3 interaction; V 10", "result": 91.0435}, {"measurement": "Normalization of Response units", "setting": "BclXL–LD3 interaction; V 100", "result": 89.9423}, {"measurement": "Response units", "setting": "BclXL–LD3 interaction; V 100", "result": 83.9791}, {"measurement": "Normalization of Response units", "setting": "BclXL–LD3 interaction; V 1000", "result": 81.529}, {"measurement": "Response units", "setting": "BclXL–LD3 interaction; V 1000", "result": 76.1236}, {"measurement": "Normalization of Response units", "setting": "BclXL–LD3 interaction; V 10000", "result": 74.8321}, {"measurement": "Response units", "setting": "BclXL–LD3 interaction; V 10000", "result": 69.8707}, {"measurement": "effect on the BclXL–LD3 interaction", "setting": "BclXL–LD3 interaction; SPR drug competition", "result": "not affecting"}, {"measurement": "Normalization of Response units", "setting": "Bcl2–LD3 interaction; V 0.01", "result": 100.745}, {"measurement": "Response units", "setting": "Bcl2–LD3 interaction; V 0.01", "result": 7.1398}, {"measurement": "Normalization of Response units", "setting": "Bcl2–LD3 interaction; V 0.1", "result": 100.312}, {"measurement": "Response units", "setting": "Bcl2–LD3 interaction; V 0.1", "result": 7.1091}, {"measurement": "Normalization of Response units", "setting": "Bcl2–LD3 interaction; V 1", "result": 96.9409}, {"measurement": "Response units", "setting": "Bcl2–LD3 interaction; V 1", "result": 6.8702}, {"measurement": "Normalization of Response units", "setting": "Bcl2–LD3 interaction; V 10", "result": 93.6659}, {"measurement": "Response units", "setting": "Bcl2–LD3 interaction; V 10", "result": 6.6381}, {"measurement": "Normalization of Response units", "setting": "Bcl2–LD3 interaction; V 100", "result": 74.5943}, {"measurement": "Response units", "setting": "Bcl2–LD3 interaction; V 100", "result": 5.2865}, {"measurement": "Normalization of Response units", "setting": "Bcl2–LD3 interaction; V 1000", "result": 57.566}, {"measurement": "Response units", "setting": "Bcl2–LD3 interaction; V 1000", "result": 4.0797}, {"measurement": "Normalization of Response units", "setting": "Bcl2–LD3 interaction; V 10000", "result": 38.8006}, {"measurement": "Response units", "setting": "Bcl2–LD3 interaction; V 10000", "result": 2.7498}, {"measurement": "SEAP (U/L)", "setting": "[2]; Independent repeat, Venetoclax 0.001 nM", "result": "294.62 U/L and 313.4 U/L and 319.588 U/L"}, {"measurement": "SEAP (U/L)", "setting": "[2]; Independent repeat, Venetoclax 0.01 nM", "result": "267.156 U/L and 307.848 U/L and 300.966 U/L"}, {"measurement": "SEAP (U/L)", "setting": "[2]; Independent repeat, Venetoclax 0.1 nM", "result": "225.991 U/L and 258.444 U/L and 342.296 U/L"}, {"measurement": "SEAP (U/L)", "setting": "[2]; Independent repeat, Venetoclax 1 nM", "result": "259.474 U/L and 200.825 U/L and 300.367 U/L"}, {"measurement": "SEAP (U/L)", "setting": "[2]; Independent repeat, Venetoclax 10 nM", "result": "304.021 U/L and 256.34 U/L and 345.499 U/L"}, {"measurement": "SEAP (U/L)", "setting": "[2]; Independent repeat, Venetoclax 31.6 nM", "result": "220.194 U/L and 208.431 U/L and 268.11 U/L"}, {"measurement": "SEAP (U/L)", "setting": "[2]; Independent repeat, Venetoclax 100 nM", "result": "193.21 U/L and 194.937 U/L and 240.35 U/L"}, {"measurement": "SEAP (U/L)", "setting": "[2]; Independent repeat, Venetoclax 316 nM", "result": "87.2098 U/L and 106.113 U/L and 133.634 U/L"}, {"measurement": "SEAP (U/L)", "setting": "[2]; Independent repeat, Venetoclax 1000 nM", "result": "44.9721 U/L and 57.2365 U/L and 51.9722 U/L"}, {"measurement": "SEAP (U/L)", "setting": "[2]; Representative, Venetoclax 0.001 nM", "result": "75.3746 U/L and 89.0712 U/L and 99.0049 U/L"}, {"measurement": "SEAP (U/L)", "setting": "[2]; Representative, Venetoclax 0.01 nM", "result": "85.1657 U/L and 70.1122 U/L and 89.4923 U/L"}, {"measurement": "SEAP (U/L)", "setting": "[2]; Representative, Venetoclax 0.1 nM", "result": "81.9771 U/L and 80.9297 U/L and 78.2538 U/L"}, {"measurement": "SEAP (U/L)", "setting": "[2]; Representative, Venetoclax 1 nM", "result": "69.1909 U/L and 65.9454 U/L and 68.5076 U/L"}, {"measurement": "SEAP (U/L)", "setting": "[2]; Representative, Venetoclax 10 nM", "result": "45.3899 U/L and 45.448 U/L and 63.5072 U/L"}, {"measurement": "SEAP (U/L)", "setting": "[2]; Representative, Venetoclax 31.6 nM", "result": "23.8212 U/L and 28.0484 U/L and 21.6764 U/L"}, {"measurement": "SEAP (U/L)", "setting": "[2]; Representative, Venetoclax 100 nM", "result": "11.359 U/L and 10.3713 U/L and 12.1034 U/L"}, {"measurement": "SEAP (U/L)", "setting": "[2]; Representative, Venetoclax 316 nM", "result": "9.4797 U/L and 7.067 U/L and 8.943 U/L"}, {"measurement": "SEAP (U/L)", "setting": "[2]; Representative, Venetoclax 1000 nM", "result": "8.365 U/L and 6.996 U/L and 8.215 U/L"}, {"measurement": "shut-down of reporter gene expression", "setting": "[2]; adding 1 µM venetoclax to 100 nM A-1155463", "result": "effectively shut down"}]}]}
